T/C data for 25 compounds are collected here from PubChem BioAssay AID330 (DTP/NCI, 2004).

Values joined by “and” are separate entries in the source; they are usually repeats but may differ in a detail not shown here. Equal entries are not always repeated. Toxic doses and inconclusive results are not listed.

The assay relates to P388 leukemia ip, CD2F1 mice, survival T/C. As to the kind of experiment: NCI In Vivo Anticancer Drug Screen. Data for tumor model P388 Leukemia (intraperitoneal) in CD2F1 (CDF1) mice. The note with it: endpoint: median survival time, higher = longer survival. Put shortly:
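Mice carrying the transplanted tumor received test compound or vehicle. Survival was recorded in each group, and the value is the treated-group measurement divided by that of the vehicle-treated control group.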

Where [1] appears, read: dose: 60.0 mg/kg/injection, schedule: Q01DX005 (ip), vehicle: saline with Tween-80.
Setting [2] is: dose: 120.0 mg/kg/injection, schedule: Q01DX005 (ip), vehicle: saline with Tween-80.
Where [3] appears, read: dose: 240.0 mg/kg/injection, schedule: Q01DX005 (ip), vehicle: saline with Tween-80.
Where [4] appears, read: dose: 50.0 mg/kg/injection, schedule: Q01DX009 (ip), vehicle: saline.
[5] abbreviates: dose: 100.0 mg/kg/injection, schedule: Q01DX009 (ip), vehicle: saline.
[6] abbreviates: dose: 200.0 mg/kg/injection, schedule: Q01DX009 (ip), vehicle: saline.
[7] abbreviates: dose: 50.0 mg/kg/injection, schedule: Q01DX009 (ip), vehicle: Klucel (hydroxypropylcellulose) (HPC).
Setting [8] is: dose: 100.0 mg/kg/injection, schedule: Q01DX009 (ip), vehicle: Klucel (hydroxypropylcellulose) (HPC).
The mark [9] stands for this setting: dose: 200.0 mg/kg/injection, schedule: Q01DX009 (ip), vehicle: Klucel (hydroxypropylcellulose) (HPC).
[10] abbreviates: dose: 100.0 mg/kg/injection, schedule: Q04DX003 (ip), vehicle: saline with Tween-80.
[11] abbreviates: dose: 200.0 mg/kg/injection, schedule: Q04DX003 (ip), vehicle: saline with Tween-80.
Where [12] appears, read: dose: 400.0 mg/kg/injection, schedule: Q04DX003 (ip), vehicle: saline with Tween-80.
The mark [13] stands for this setting: dose: 50.0 mg/kg/injection, schedule: Q01DX009 (ip), vehicle: saline with Tween-80.
The mark [14] stands for this setting: dose: 100.0 mg/kg/injection, schedule: Q01DX009 (ip), vehicle: saline with Tween-80.
Where [15] appears, read: dose: 50.0 mg/kg/injection, schedule: Q01DX005 (ip), vehicle: Klucel (hydroxypropylcellulose) (HPC).
[16] abbreviates: dose: 100.0 mg/kg/injection, schedule: Q01DX005 (ip), vehicle: Klucel (hydroxypropylcellulose) (HPC).
Setting [17] is: dose: 200.0 mg/kg/injection, schedule: Q01DX005 (ip), vehicle: Klucel (hydroxypropylcellulose) (HPC).

With `Nc1ccn(C2OC(COP(=O)(O)O)C(O)C2O)c(=O)n1` (centres undefined) (tested in a mixture with another compound), the T/C runs as follows: (dose: 60.0 mg/kg/injection, schedule: Q01DX005 (ip), vehicle: Klucel (hydroxypropylcellulose) (HPC)) 108 % of control; (dose: 120.0 mg/kg/injection, schedule: Q01DX005 (ip), vehicle: Klucel (hydroxypropylcellulose) (HPC)) 99 % of control; (dose: 240.0 mg/kg/injection, schedule: Q01DX005 (ip), vehicle: Klucel (hydroxypropylcellulose) (HPC)) 99 % of control.
Turning to `C[CH2][Sn]([CH2]C)([n]1cnc2ccccc21)[n]1cnc2ccccc21`, the T/C was 120 % of control (dose: 1.56 mg/kg/injection, schedule: Q01DX005 (ip), vehicle: Klucel (hydroxypropylcellulose) (HPC)); 123 % of control (dose: 3.12 mg/kg/injection, schedule: Q01DX005 (ip), vehicle: Klucel (hydroxypropylcellulose) (HPC)); 109 % of control and 122 % of control (dose: 6.25 mg/kg/injection, schedule: Q01DX005 (ip), vehicle: Klucel (hydroxypropylcellulose) (HPC)).
`O=C1/C(=C(\Cl)c2ccccc2)Cc2ccccc21`: the T/C was 100 % of control (dose: 75.0 mg/kg/injection, schedule: Q01DX001 (ip), vehicle: saline sonified); 95 % of control (dose: 150.0 mg/kg/injection, schedule: Q01DX001 (ip), vehicle: saline sonified); 118 % of control (dose: 300.0 mg/kg/injection, schedule: Q01DX001 (ip), vehicle: saline sonified).
For `CCOC(=O)C1C(COCc2ccccc2)C2CCC1(OC)C=C2C` (centres undefined), the T/C runs as follows: (dose: 50.0 mg/kg/injection, schedule: Q01DX005 (ip), vehicle: saline with Tween-80) 99 % of control; (dose: 100.0 mg/kg/injection, schedule: Q01DX005 (ip), vehicle: saline with Tween-80) 97 % of control; (dose: 200.0 mg/kg/injection, schedule: Q01DX005 (ip), vehicle: saline with Tween-80) 104 % of control.
Regarding `CC1(C)CC(OP(=[Se])(c2ccccc2)c2ccccc2)CC(C)(C)N1O`, the T/C is 96 % of control (dose: 12.5 mg/kg/injection, schedule: Q01DX001 (ip), vehicle: Klucel (hydroxypropylcellulose) (HPC)); 99 % of control (dose: 25.0 mg/kg/injection, schedule: Q01DX001 (ip), vehicle: Klucel (hydroxypropylcellulose) (HPC)); 104 % of control (dose: 50.0 mg/kg/injection, schedule: Q01DX001 (ip), vehicle: Klucel (hydroxypropylcellulose) (HPC)).
As for `COC(=O)/C=C/c1oc(=O)c(CO)c(OC)c1CO`, the T/C is 119 % of control (dose: 20.0 mg/kg/injection, schedule: Q01DX009 (ip), vehicle: Klucel (hydroxypropylcellulose) (HPC)); 119 % of control (dose: 40.0 mg/kg/injection, schedule: Q01DX009 (ip), vehicle: Klucel (hydroxypropylcellulose) (HPC)); 111 % of control (dose: 80.0 mg/kg/injection, schedule: Q01DX009 (ip), vehicle: Klucel (hydroxypropylcellulose) (HPC)).
On to `Cc1c(N=Nc2cccc(Cl)c2)c(-c2ccccc2)nn1C(N)=S`, for which the T/C was 89 % of control (dose: 100.0 mg/kg/injection, schedule: Q01DX001 (ip), vehicle: saline with Tween-80); 92 % of control (dose: 200.0 mg/kg/injection, schedule: Q01DX001 (ip), vehicle: saline with Tween-80); 90 % of control (dose: 400.0 mg/kg/injection, schedule: Q01DX001 (ip), vehicle: saline with Tween-80).
Consider `NNC(=O)CC(NN)c1ccccc1O` (centres undefined), for which the T/C was 104 % of control under setting [1], 105 % of control under setting [2] and 105 % of control under setting [3].
Consider `CCCCCCCCCCCCCCCC[N+]1(CC)CCSCC1`, for which the T/C by setting is: under setting [4], 100 % of control; under setting [5], 96 % of control; under setting [6], 100 % of control.
In the case of `C=CCSc1nc2ccc(NC(=O)CCC(=O)O)cc2s1`, the T/C was 103 % of control under setting [7], 111 % of control under setting [8] and 93 % of control under setting [9].
In the case of `CC(C)CCOC(=O)CN(CC(=O)OCCC(C)C)c1ccccc1`, the T/C by setting is: under setting [10], 104 % of control; under setting [11], 100 % of control; under setting [12], 95 % of control.
As to `CCCCCCCC/C=C\CCCCCCCC(=O)OCCSCCOC(C)=O`, the T/C is, setting by setting: under setting [7], 94 % of control; under setting [8], 101 % of control; under setting [9], 94 % of control.
Turning to `C=C(C)[Se]c1ccccc1`, the T/C by setting is: under setting [13], 100 % of control and 118 % of control; under setting [14], 101 % of control and 121 % of control.
Take `FC(F)(F)c1cccc(N=Cc2ccc(C=Nc3cccc(C(F)(F)F)c3)cc2)c1`: the T/C is 99 % of control under setting [4], 99 % of control under setting [5] and 97 % of control under setting [6].
Regarding `Nc1nc(C2CCCC2)c(I)c(=O)[nH]1`, the T/C is, setting by setting: under setting [15], 105 % of control; under setting [16], 108 % of control; under setting [17], 92 % of control.
As to `CC(/C=C/c1ccco1)=N\NC(=S)Nc1ccc(Cl)cc1`, the T/C is, setting by setting: (dose: 100.0 mg/kg/injection, schedule: Q01DX001 (ip), vehicle: Klucel (hydroxypropylcellulose) (HPC)) 91 % of control; (dose: 200.0 mg/kg/injection, schedule: Q01DX001 (ip), vehicle: Klucel (hydroxypropylcellulose) (HPC)) 100 % of control; (dose: 400.0 mg/kg/injection, schedule: Q01DX001 (ip), vehicle: Klucel (hydroxypropylcellulose) (HPC)) 100 % of control.
As to `CCc1ccccc1NC(=O)C(C#N)C1=C(Cl)C(=O)c2ccccc2C1=O` (centres undefined), the T/C is, setting by setting: under setting [1], 113 % of control; under setting [2], 106 % of control.
Take `CC1(C)NC(=O)N(CN2CCOCC2)C1=O`: the T/C was 104 % of control (dose: 30.0 mg/kg/injection, schedule: Q01DX005 (ip), vehicle: saline); 109 % of control and 111 % of control and 93 % of control (dose: 60.0 mg/kg/injection, schedule: Q01DX005 (ip), vehicle: saline); 106 % of control and 119 % of control and 123 % of control (dose: 120.0 mg/kg/injection, schedule: Q01DX005 (ip), vehicle: saline); 106 % of control and 116 % of control and 120 % of control (dose: 240.0 mg/kg/injection, schedule: Q01DX005 (ip), vehicle: saline).
As to `COC1N(C2CC(O)C(CO)O2)C(=O)NC(=O)C1(F)Br` (centres undefined), the T/C (dose: 178.0 mg/kg/injection, schedule: Q04DX003 (ip), vehicle: saline) is 118 % of control.
On to `Clc1cccc(C(Nc2nncs2)Nc2nncs2)c1`, for which the T/C by setting is: under setting [1], 100 % of control; under setting [2], 100 % of control; under setting [3], 93 % of control.
For `C[C@]12C[C@@H](O)[C@H]3[C@@H](CCC4=C(O)C(=O)CC[C@@]43C)[C@@H]1CC[C@@H]2O`, the T/C by setting is: (dose: 12.5 mg/kg/injection, schedule: Q01DX005 (ip), vehicle: Klucel (hydroxypropylcellulose) (HPC)) 97 % of control; (dose: 25.0 mg/kg/injection, schedule: Q01DX005 (ip), vehicle: Klucel (hydroxypropylcellulose) (HPC)) 105 % of control; under setting [15], 101 % of control; under setting [16], 90 % of control; under setting [17], 95 % of control.
In the case of `C(=N\N1CCCCCC1)/c1c2ccccc2cc2ccccc12`, the T/C by setting is: (dose: 50.0 mg/kg/injection, schedule: Q01DX005 (ip), vehicle: Klucel + Tween-80) 89 % of control; (dose: 100.0 mg/kg/injection, schedule: Q01DX005 (ip), vehicle: Klucel + Tween-80) 90 % of control; (dose: 200.0 mg/kg/injection, schedule: Q01DX005 (ip), vehicle: Klucel + Tween-80) 92 % of control.
For the compound `CC(C)n1cnc2c(Cl)ncnc21`, the T/C runs as follows: (dose: 25.0 mg/kg/injection, schedule: Q01DX009 (ip), vehicle: saline with Tween-80) 100 % of control; under setting [13], 104 % of control; under setting [14], 95 % of control.
For the compound `CC1(c2ccco2)NC(=O)NC1=O` (centres undefined), the T/C is 90 % of control under setting [10], 100 % of control under setting [11] and 90 % of control under setting [12].
As for `O=c1c2sc3ccccc3c2ncn1/N=C/c1cccc(Cl)c1`, the T/C is, setting by setting: under setting [15], 96 % of control; under setting [16], 97 % of control; under setting [17], 88 % of control.
